This is an account of results in patent US20140113898A1, “BISARYLSULFONE AND DIALKYLARYLSULFONE COMPOUNDS AS CALCIUM CHANNEL BLOCKERS” (Zalicus Pharmaceuticals Ltd., priority 2010, published 2014).

pIC50: −log10 of the molar value.

The target in the first test is T1, CaV2.2 (Homo sapiens, UniProt Q00975).
T1 construct: expressed in transfected cells; host or cells: unnamed doxycycline-inducible cell line
T1 sequence (Q00975 whole entry): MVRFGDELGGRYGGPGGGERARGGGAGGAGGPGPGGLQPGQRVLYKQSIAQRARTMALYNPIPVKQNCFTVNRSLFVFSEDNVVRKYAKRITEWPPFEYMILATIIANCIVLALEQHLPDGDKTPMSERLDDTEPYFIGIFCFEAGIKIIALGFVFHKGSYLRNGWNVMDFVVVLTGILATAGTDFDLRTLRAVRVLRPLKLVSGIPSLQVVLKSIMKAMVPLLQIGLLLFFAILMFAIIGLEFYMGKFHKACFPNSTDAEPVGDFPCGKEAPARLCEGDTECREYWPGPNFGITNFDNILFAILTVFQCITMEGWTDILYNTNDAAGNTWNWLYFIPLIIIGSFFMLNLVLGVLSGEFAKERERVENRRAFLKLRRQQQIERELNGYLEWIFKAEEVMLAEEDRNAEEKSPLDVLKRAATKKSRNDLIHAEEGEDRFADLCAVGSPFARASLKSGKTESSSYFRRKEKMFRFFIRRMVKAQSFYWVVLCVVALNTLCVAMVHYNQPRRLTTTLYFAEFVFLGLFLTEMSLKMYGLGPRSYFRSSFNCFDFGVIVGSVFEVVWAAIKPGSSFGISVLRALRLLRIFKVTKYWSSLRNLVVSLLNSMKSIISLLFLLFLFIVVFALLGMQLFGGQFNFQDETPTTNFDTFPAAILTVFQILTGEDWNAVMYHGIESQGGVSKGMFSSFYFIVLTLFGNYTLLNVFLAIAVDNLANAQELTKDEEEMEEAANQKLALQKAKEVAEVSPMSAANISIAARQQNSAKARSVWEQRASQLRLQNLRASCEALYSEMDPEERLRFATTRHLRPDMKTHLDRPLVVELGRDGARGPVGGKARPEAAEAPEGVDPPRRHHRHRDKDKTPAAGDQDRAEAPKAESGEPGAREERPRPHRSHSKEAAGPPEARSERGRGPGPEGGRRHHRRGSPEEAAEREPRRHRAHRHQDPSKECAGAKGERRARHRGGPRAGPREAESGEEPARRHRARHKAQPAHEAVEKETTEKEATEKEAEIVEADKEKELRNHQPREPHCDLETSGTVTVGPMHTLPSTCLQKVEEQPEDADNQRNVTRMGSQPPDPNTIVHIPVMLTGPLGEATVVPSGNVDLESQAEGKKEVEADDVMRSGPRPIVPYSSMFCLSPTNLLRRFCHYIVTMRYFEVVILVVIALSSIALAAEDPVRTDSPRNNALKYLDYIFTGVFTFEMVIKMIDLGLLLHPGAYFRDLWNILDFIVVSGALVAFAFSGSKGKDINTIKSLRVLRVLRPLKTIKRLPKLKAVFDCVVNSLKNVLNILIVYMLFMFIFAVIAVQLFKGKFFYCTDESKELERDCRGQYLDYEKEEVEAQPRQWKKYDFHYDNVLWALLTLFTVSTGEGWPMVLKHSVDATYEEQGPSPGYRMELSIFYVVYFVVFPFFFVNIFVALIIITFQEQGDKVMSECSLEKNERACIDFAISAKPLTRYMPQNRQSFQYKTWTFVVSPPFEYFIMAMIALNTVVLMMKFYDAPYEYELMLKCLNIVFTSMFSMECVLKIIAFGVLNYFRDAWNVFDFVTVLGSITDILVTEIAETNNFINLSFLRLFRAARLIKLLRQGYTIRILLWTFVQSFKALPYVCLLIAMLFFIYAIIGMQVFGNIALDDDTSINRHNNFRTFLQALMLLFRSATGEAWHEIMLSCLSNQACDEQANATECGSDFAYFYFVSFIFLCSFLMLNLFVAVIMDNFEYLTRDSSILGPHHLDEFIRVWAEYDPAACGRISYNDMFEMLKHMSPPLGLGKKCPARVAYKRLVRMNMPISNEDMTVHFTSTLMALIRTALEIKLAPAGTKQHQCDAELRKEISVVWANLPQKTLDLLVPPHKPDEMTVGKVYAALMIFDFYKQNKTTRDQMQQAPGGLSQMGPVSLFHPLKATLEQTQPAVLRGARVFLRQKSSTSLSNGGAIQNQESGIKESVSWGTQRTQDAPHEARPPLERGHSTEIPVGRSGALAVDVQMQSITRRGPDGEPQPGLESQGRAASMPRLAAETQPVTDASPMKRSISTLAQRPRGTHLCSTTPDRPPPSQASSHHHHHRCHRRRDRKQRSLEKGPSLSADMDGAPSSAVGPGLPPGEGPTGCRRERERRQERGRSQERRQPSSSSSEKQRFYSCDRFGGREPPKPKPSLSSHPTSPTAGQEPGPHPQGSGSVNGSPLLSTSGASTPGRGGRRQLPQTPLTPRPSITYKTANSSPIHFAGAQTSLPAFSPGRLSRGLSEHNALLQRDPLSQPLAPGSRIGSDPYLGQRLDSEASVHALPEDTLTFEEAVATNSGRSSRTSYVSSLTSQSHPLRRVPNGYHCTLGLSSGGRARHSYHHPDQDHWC
T1 sequence (P54284 whole entry partner): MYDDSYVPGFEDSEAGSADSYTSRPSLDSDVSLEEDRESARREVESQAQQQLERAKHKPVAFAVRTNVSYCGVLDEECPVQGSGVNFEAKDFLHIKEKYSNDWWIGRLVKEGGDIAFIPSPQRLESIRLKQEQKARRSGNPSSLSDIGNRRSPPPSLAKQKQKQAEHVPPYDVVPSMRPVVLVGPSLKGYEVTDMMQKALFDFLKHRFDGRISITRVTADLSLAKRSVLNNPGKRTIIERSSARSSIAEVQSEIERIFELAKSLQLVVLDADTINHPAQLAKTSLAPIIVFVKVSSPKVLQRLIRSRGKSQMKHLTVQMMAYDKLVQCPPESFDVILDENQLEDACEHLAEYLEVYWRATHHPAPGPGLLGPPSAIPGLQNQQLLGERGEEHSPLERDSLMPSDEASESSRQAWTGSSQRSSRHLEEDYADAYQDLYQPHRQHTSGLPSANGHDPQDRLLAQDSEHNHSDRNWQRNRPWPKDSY
T1 sequence (P54289 25-946 partner limits assumed): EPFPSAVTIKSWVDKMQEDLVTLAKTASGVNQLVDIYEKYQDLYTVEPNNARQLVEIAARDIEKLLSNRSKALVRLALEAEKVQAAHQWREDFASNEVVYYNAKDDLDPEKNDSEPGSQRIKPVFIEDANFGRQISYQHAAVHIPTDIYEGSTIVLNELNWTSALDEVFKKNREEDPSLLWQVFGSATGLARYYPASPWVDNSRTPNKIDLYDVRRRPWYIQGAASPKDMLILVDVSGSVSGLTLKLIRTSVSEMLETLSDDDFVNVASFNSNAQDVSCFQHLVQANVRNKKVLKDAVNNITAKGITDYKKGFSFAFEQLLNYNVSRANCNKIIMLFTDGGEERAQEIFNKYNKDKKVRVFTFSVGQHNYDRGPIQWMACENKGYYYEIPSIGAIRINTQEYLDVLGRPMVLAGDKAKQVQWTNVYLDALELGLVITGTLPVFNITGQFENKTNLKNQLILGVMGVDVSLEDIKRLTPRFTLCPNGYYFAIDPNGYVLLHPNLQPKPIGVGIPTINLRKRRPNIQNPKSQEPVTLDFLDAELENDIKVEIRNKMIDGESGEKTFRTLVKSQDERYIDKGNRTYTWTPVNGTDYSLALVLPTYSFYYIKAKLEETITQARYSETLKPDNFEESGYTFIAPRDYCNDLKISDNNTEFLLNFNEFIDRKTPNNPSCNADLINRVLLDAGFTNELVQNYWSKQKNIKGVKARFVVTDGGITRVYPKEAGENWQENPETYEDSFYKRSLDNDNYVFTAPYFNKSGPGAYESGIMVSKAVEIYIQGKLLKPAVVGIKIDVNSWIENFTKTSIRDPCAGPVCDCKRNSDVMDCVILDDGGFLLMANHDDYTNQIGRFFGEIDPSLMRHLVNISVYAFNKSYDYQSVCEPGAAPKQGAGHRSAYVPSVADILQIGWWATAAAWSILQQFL
T1 sequence (P54289 947-1103 partner limits assumed): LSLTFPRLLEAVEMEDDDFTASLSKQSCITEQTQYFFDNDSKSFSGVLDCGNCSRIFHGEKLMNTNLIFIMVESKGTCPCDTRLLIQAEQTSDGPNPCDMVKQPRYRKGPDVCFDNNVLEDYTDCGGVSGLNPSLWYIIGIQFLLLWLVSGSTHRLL
Put plainly: High-throughput CaV2.2/Kir2.3 FLIPR fluorescent assay. The format is cell-based. The note with it: Table 4; Fluo-4 FLIPR; closed or inactivated state not stated; read-out: FLIPR data CaV2.2. As for the experimental part:
Cells were plated in 384-well, clear-bottom, black-walled, poly-D-lysine coated plates (Becton Dickinson, Franklin Lake, N.J.) 2 days prior to use in the FLIPR assay. 100 μL of cells (1.4×10^6 cell/mL) containing doxycyline (Sigma-Aldrich, 1.5 μg/mL; to induce channel expression) were added to each well using a Multidrop (Thermo Scientific, Waltham, Mass.) and were maintained in 5% CO2 incubator at 37° C. On the morning of the assay, cells were transferred to a 5% CO2 incubator at 29° C.
Cells were washed with a wash buffer containing (in mM): 118 NaCl, 18.4 HEPES, 11.7 D-glucose, 2 CaCl2, 0.5 MgSO4, 4.7 KCl, 1.2 KH2PO4, pH adjusted to 7.2 with NaOH. 4.4 μM of the fluorescent indicator dye, Fluo-4 (Invitrogen), prepared in pluronic acid (Sigma-Aldrich), was loaded into the wells and incubated for 45 minutes at 29° C. in 5% CO2. Cells were then rinsed with either a 2 mM KCl closed-state buffer (in mM: 138.5 NaCl, 10 HEPES, 10 D-glucose, 1 CaCl2, and 2 KCl, with the pH adjusted to 7.4 with NaOH) when performing the closed-state assay or 12.5 mM KCl inactivated-state buffer (in mM: 128 NaCl, 10 HEPES, 10 D-glucose, 1 CaCl2, and 12.5 mM KCl, with the pH adjusted to 7.4 with NaOH) when performing the inactivated-state assay.
Calcium entry was evoked with an addition of 130 mM KCl stimulation buffer (in mM: 10.5 NaCl, 10 HEPES, 10 D-glucose, 1 CaCl2, and 130 KCl, with the pH adjusted to 7.4 with NaOH) for both the closed-state or inactivated-state assay. A change in the Fluo-4 fluorescence signal was assessed using FLIPR^TETRA™ instrument (Molecular Devices, Sunnyvale, Calif.) for 3 minutes following the elevation of extracellular KCl using an illumination wavelength of 470-495 nm with emissions recorded at 515-575 nm.
Concentration-dependent response curves were obtained by comparing the fluorescence signal in the presence of compound and fitted with a logistic function (1) to obtain the concentration that inhibited 50% (IC50) of the RLU signal using OriginPro v.7.5 software (OriginLab, Northampton, Mass.).
To assess the quality of the FLIPR assays the Z-factor (2) was used to quantify the suitability of the assay conditions using the following equation: […]
Data are expressed as mean and standard deviation (SD).
Consider `CN1CCCCC1C(=O)NCc1ccc(S(=O)(=O)c2cccc(C(F)(F)F)c2)cc1` (stereo not shown) [Compound 84, 1-methyl-N-(4-((3-(trifluoromethyl)phenyl)sulfonyl)benzyl)piperidine-2-carboxamide], for which the pIC50 is 5.64.
For `O=C(CCC(F)(F)F)NCc1ccccc1S(=O)(=O)c1cccc(C(F)(F)F)c1` [Compound 55, 4,4,4-trifluoro-N-(2-((3-(trifluoromethyl)phenyl)sulfonyl)benzyl)butanamide], the pIC50 is 5.57.
Take `O=C(NCc1ccccc1S(=O)(=O)c1cccc(C(F)(F)F)c1)[C@@H]1C[C@@H](F)CN1` [Compound 69, (2S,4R)-4-fluoro-N-(2-((3-(trifluoromethyl)phenyl)sulfonyl)benzyl)pyrrolidine-2-carboxamide]: the pIC50 is 5.04.
Take `O=C(NCc1ccc(S(=O)(=O)c2cccc(C(F)(F)F)c2)cc1)[C@@H]1C[C@@H](O)CN1` [Compound 74, (2S,4R)-4-hydroxy-N-(4-((3-(trifluoromethyl)phenyl)sulfonyl)benzyl)pyrrolidine-2-carboxamide]: the pIC50 is 5.63.
Turning to `NC1(C(=O)NCc2ccc(S(=O)(=O)c3cccc(C(F)(F)F)c3)cc2)CCC1` [Compound 66, 1-amino-N-(4-((3-(trifluoromethyl)phenyl)sulfonyl)benzyl)cyclobutanecarboxamide], the pIC50 is 5.71.
On the same count and under the same terms, the figure for `O=C(NCc1ccccc1S(=O)(=O)c1cccc(C(F)(F)F)c1)c1ccnc(C(F)(F)F)n1` [Compound 46, 2-(trifluoromethyl)-N-(2-((3-(trifluoromethyl)phenyl)sulfonyl)benzyl)pyrimidine-4-carboxamide] is 5.76; for `O=C(NCc1ccc(S(=O)(=O)c2cccc(C(F)(F)F)c2)cn1)[C@H]1CCCN1` [Compound 108, (R)-N-((5-((3-(trifluoromethyl)phenyl)sulfonyl)pyridin-2-yl)methyl)pyrrolidine-2-carboxamide] it is 5.59.
Regarding `CC1(C(=O)NCc2ccc(S(=O)(=O)c3cccc(C(F)(F)F)c3)cc2)CCCCN1` (stereo not shown) [Compound 85, 2-methyl-N-(4-((3-(trifluoromethyl)phenyl)sulfonyl)benzyl)piperidine-2-carboxamide], the pIC50 was 5.71.
Regarding `NC1(C(=O)NCc2ccc(S(=O)(=O)c3cccc(C(F)(F)F)c3)cc2)CCOCC1` [Compound 60, 4-amino-N-(4-((3-(trifluoromethyl)phenyl)sulfonyl)benzyl)tetrahydro-2H-pyran-4-carboxamide], the pIC50 was 5.37.
On the same count and under the same terms, the result for `O=C(NCc1ccc(S(=O)(=O)c2cccc(C(F)(F)F)c2)cc1)[C@@H]1C[C@H](F)CN1` [Compound 70, (2S,4S)-4-fluoro-N-(4-((3-(trifluoromethyl)phenyl)sulfonyl)benzyl)pyrrolidine-2-carboxamide] reads 5.32; that for `O=C(NCc1ccc(S(=O)(=O)c2cccc(C(F)(F)F)c2)cc1)[C@@H]1C[C@@H](F)CN1` [Compound 68, (2S,4R)-4-fluoro-N-(4-((3-(trifluoromethyl)phenyl)sulfonyl)benzyl)pyrrolidine-2-carboxamide], 5.64; that for `O=C(NCc1cc(S(=O)(=O)c2cccc(C(F)(F)F)c2)ccn1)c1ccnc(C(F)(F)F)n1` [Compound 113, 2-(trifluoromethyl)-N-((4-((3-(trifluoromethyl)phenyl)sulfonyl)pyridin-2-yl)methyl)pyrimidine-4-carboxamide], 5.86.

Still in this test, the particulars now being: Table 5; Fluo-4 FLIPR; closed or inactivated state not stated; read-out: FLIPR data CaV2.2.
On to `CC(C)(C(=O)Nc1ccc(Oc2ccncc2)cc1)S(=O)(=O)c1cccc(C(F)(F)F)c1` [Compound 143, 2-methyl-N-(4-(pyridin-4-yloxy)phenyl)-2-((3-(trifluoromethyl)phenyl)sulfonyl)propanamide], for which the pIC50 was 5.00.
Regarding `CC(C)(CCNC(=O)c1cn2cc(C(F)(F)F)ccc2n1)S(=O)(=O)c1cc(F)cc(C(F)(F)F)c1` [Compound 214, N-(3-((3-fluoro-5-(trifluoromethyl)phenyl)sulfonyl)-3-methylbutyl)-6-(trifluoromethyl)imidazo[1,2-a]pyridine-2-carboxamide], the pIC50 was 5.88.
Take `CC(C)(CCNC(=O)c1ccc(S(C)(=O)=O)cc1Cl)S(=O)(=O)c1cccc(C(F)(F)F)c1` [Compound 189, 2-chloro-N-(3-methyl-3-((3-(trifluoromethyl)phenyl)sulfonyl)butyl)-4-(methylsulfonyl)benzamide]: the pIC50 was 5.87.
Same read-out and setting: the figure for `CC(C)(CCNC(=O)C1(N)CCS(=O)(=O)CC1)S(=O)(=O)c1cccc(C(F)(F)F)c1` [Compound 198, 4-amino-N-(3-methyl-3-((3-(trifluoromethyl)phenyl)sulfonyl)butyl)tetrahydro-2H-thiopyran-4-carboxamide 1,1-dioxide] is 5.04.
Regarding `CC(C)(CCNC(=O)c1ccc(S(C)(=O)=O)cc1)S(=O)(=O)c1cccc(C(F)(F)F)c1` [Compound 191, N-(3-methyl-3-((3-(trifluoromethyl)phenyl)sulfonyl)butyl)-4-(methylsulfonyl)benzamide], the pIC50 was 5.85.
The same measure, in the same setting: the result for `CC(C)(CNC(=O)c1ccnc(Cl)c1)S(=O)(=O)c1cccc(C(F)(F)F)c1` [Compound 180, 2-chloro-N-(2-methyl-2-((3-(trifluoromethyl)phenyl)sulfonyl)propyl)isonicotinamide] reads 5.40.
The same measure, in the same setting: the result for `Cc1nc(C(F)(F)F)ccc1C(=O)NCC(C)(C)S(=O)(=O)c1cccc(C(F)(F)F)c1` [Compound 172, 2-methyl-N-(2-methyl-2-((3-(trifluoromethyl)phenyl)sulfonyl)propyl)-6-(trifluoromethyl)nicotinamide] reads 5.66; that for `Cc1cc(C(=O)NCC(C)(C)S(=O)(=O)c2cccc(C(F)(F)F)c2)cc(C)c1O` [Compound 167, 4-hydroxy-3,5-dimethyl-N-(2-methyl-2-((3-(trifluoromethyl)phenyl)sulfonyl)propyl)benzamide], 5.85.
Same read-out and setting: the figure for `CC(C)(CCNC(=O)c1ccccc1S(C)(=O)=O)S(=O)(=O)c1cccc(C(F)(F)F)c1` [Compound 192, N-(3-methyl-3-((3-(trifluoromethyl)phenyl)sulfonyl)butyl)-2-(methylsulfonyl)benzamide] is 5.52; for `CC(C)(CCNC(=O)[C@@H](N)c1ccccc1)S(=O)(=O)c1cccc(C(F)(F)F)c1` [Compound 205, (S)-2-amino-N-(3-methyl-3-((3-(trifluoromethyl)phenyl)sulfonyl)butyl)-2-phenylacetamide] it is 5.83; for `CC(C)S(=O)(=O)c1cccnc1C(=O)NCCC(C)(C)S(=O)(=O)c1cccc(C(F)(F)F)c1` [Compound 211, 3-(isopropylsulfonyl)-N-(3-methyl-3-((3-(trifluoromethyl)phenyl)sulfonyl)butyl)picolinamide] it is 5.96.
On to `CC(C)(CNC(=O)c1ccc(C(F)(F)F)nc1S(C)(=O)=O)S(=O)(=O)c1cccc(C(F)(F)F)c1` [Compound 155, N-(2-methyl-2-((3-(trifluoromethyl)phenyl)sulfonyl)propyl)-2-(methylsulfonyl)-6-(trifluoromethyl)nicotinamide], for which the pIC50 is 5.87.
Consider `CC(C)(CNC(=O)c1cnc(C(F)(F)F)nc1)S(=O)(=O)c1cccc(C(F)(F)F)c1` [Compound 164, N-(2-methyl-2-((3-(trifluoromethyl)phenyl)sulfonyl)propyl)-2-(trifluoromethyl)pyrimidine-5-carboxamide], for which the pIC50 is 5.33.
